Molecular target: 72 kDa type IV collagenase (Homo sapiens, UniProt P08253)
Assay: Inhibition of recombinant MMP2

Sequence of 72 kDa type IV collagenase (P08253 whole entry): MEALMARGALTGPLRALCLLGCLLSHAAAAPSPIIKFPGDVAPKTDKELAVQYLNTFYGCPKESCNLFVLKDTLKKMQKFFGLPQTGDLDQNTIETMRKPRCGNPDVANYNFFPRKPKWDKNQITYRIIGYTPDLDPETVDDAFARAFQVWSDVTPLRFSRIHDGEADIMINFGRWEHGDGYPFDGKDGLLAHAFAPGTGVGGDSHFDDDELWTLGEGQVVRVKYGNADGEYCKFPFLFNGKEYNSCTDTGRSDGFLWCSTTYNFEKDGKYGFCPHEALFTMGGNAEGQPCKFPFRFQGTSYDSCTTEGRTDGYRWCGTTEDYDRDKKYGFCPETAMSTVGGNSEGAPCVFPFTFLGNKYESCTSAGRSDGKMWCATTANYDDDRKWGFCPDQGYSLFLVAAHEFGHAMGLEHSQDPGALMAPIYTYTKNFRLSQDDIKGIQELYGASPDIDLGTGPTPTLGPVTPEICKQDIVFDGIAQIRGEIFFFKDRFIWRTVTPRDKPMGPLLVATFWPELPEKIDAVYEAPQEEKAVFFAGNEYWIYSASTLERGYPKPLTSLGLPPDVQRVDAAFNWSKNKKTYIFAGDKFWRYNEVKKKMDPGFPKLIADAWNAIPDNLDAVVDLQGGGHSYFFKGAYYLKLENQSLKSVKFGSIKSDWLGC

IC50: 23.2 µM
Compound: CCCCCCC(O)CCCCCCCCCCCOS(=O)(=O)O (stereo unspecified)

Source: ChEMBL document CHEMBL1150172, “Sodium 1-(12-hydroxy)octadecanyl sulfate, an MMP2 inhibitor, isolated from a tunicate of the family Polyclinidae” (J Nat Prod, 2002)
